Laboratory results reported in patent US8163509B2, “Biological markers predictive of anti-cancer response to insulin-like growth factor-1 receptor kinase inhibitors” (The Regents of the University of Colorado, A Body Corporate, priority 2008, dated 2012).
Like-named read-outs stand apart in the source and are kept apart here. One block for each compound: values may come before it.

What was measured:
Test in all cases: SRB proliferation assay, 72 h
Type in all cases: cell-based
CaCo2 CRC cell line = conditions: Homo sapiens
Procedure: (§1) FIG. 17: Results of cell proliferation assay on the panel of 27 CRC cell lines. Cell proliferation was evaluated by SRB following exposure to OSI-906 for 72 hours. Cells were plated at an optimized density in 96-well plates, incubated overnight at 37° C., and then exposed to a serial dilution of OSI-906. After 72 hours incubation, cells were fixed with trichloroacetic acid and an SRB was performed as described in materials and methods.
(§2) Cell Lines and Culture. […] human colon cancer cell lines, were obtained from American Type Culture Collection (Manassas, Va.). Cells were grown in RPMI medium supplemented with 10% fetal bovine serum, 1% non-essential amino acids, 1% penicillin/streptomycin and were maintained at 37° C. in an incubator under an atmosphere containing 5% CO2. The cells were routinely screened for the presence of mycoplasma (MycoAlert, Cambrex Bio Science, Baltimore, Md.) and were exposed to PQIP when they reached approximately 70% confluence.
(§3) The CRC cell lines were treated with a range of concentrations of PQIP (from 0.05-5 μM) for 72 hours.
(§4) Cell Lines and Culture: Twenty-seven human colon cancer cell lines, were obtained from American Type Culture Collection (Manassas, Va.). The GEO cells were a generous gift from Dr. Fortunato Ciardiello (Cattedra di Oncologia Medica, Dipartimento Medico-Chirurgico di Internistica Clinica e Sperimentale “F Magrassi e A Lanzara,” Seconda Università degli Studi di Napoli, Naples). All cells except GEO were grown in RPMI medium supplemented with 10% fetal bovine serum, 1% non-essential amino acids, 1% penicillin/streptomycin and were maintained at 37° C. in an incubator under an atmosphere containing 5% CO2. GEO cells were grown in DMEM/F12 supplemented with 10% fetal bovine serum, 1% non-essential amino acids, 1% penicillin/streptomycin. The cells were routinely screened for the presence of mycoplasma (MycoAlert, Cambrex Bio Science, Baltimore, Md.) and were exposed to OSI-906 when they reached approximately 70% confluence. OSI-906 was provided by OSI Pharmaceuticals, (Boulder, Colo.) and prepared as a 10 mM stock solution in DMSO.
(§5) Assessment of responsiveness of a panel of CRC cell lines to OSI-906. In order to assess CRC cell lines with differential sensitivity to OSI-906, a panel of 27 CRC cell lines were exposed to increasing concentrations of OSI-906 and proliferation was measured using the SRB assay as described previously (Pitts, T M, et al. Mol Cancer Ther 2009; 8(2):342-9). As depicted in FIG. 17 there was a wide range of sensitivity of the CRC cell lines to OSI-906, the majority of the cell lines failing to reach an IC50 up to 5 μmol/L, but a clear distinction could be made between the cell lines that were sensitive and the cell lines that were resistant.

Colo205 CRC cell line = conditions: Homo sapiens, COLO 205
Procedure: as §1, §2, §3, §4, §5

HCT8 CRC cell line = conditions: Homo sapiens
Procedure: as §1, §2, §3, §4, §5

LS123 CRC cell line = conditions: Homo sapiens
Procedure: as §1, §2, §3, §4, §5

LS174T CRC cell line = conditions: Homo sapiens
Procedure: as §1, §2, §3, §4, §5

LoVo CRC cell line = conditions: Homo sapiens
Procedure: as §1, §2, §3, §4, §5

SW1116 CRC cell line = conditions: Homo sapiens
Procedure: as §1, §2, §3, §4, §5

SW1463 CRC cell line = conditions: Homo sapiens
Procedure: as §1, §2, §3, §4, §5

SW403 CRC cell line = conditions: Homo sapiens
Procedure: as §1, §2, §3, §4, §5

SW48 CRC cell line = conditions: Homo sapiens
Procedure: as §1, §2, §3, §4, §5

SW837 CRC cell line = conditions: Homo sapiens
Procedure: as §1, §2, §3, §4, §5

T84 CRC cell line = conditions: Homo sapiens
Procedure: as §1, §2, §3, §4, §5

[1] = 72 hours, 0.05-5 μM, read-out: IC50, growth inhibition by PQIP (SRB)
[2] = 72 hours, read-out: IC50, proliferation, OSI-906 (SRB)

IC50 (CaCo2 CRC cell line; Caco-2, 72 hours, 0.05-5 μM, read-out: IC50, growth inhibition by PQIP (SRB)): > 5 µM
IC50 (Colo205 CRC cell line; Colo205, 72 hours, 0.05-5 μM, read-out: IC50, growth inhibition by PQIP (SRB)): < 0.5 µM
IC50 (HCT8 CRC cell line; HCT-8, 72 hours, 0.05-5 μM, read-out: IC50, growth inhibition by PQIP (SRB)): > 5 µM
IC50 (LoVo CRC cell line; [1]): > 5 µM
IC50 (SW1116 CRC cell line; SW 1116, 72 hours, 0.05-5 μM, read-out: IC50, growth inhibition by PQIP (SRB)): > 5 µM
IC50 (SW1463 CRC cell line; [1]): > 5 µM
IC50 (SW403 CRC cell line; SW-403, 72 hours, 0.05-5 μM, read-out: IC50, growth inhibition by PQIP (SRB)): > 5 µM
IC50 (SW48 CRC cell line; [1]): > 5 µM
IC50 (SW837 CRC cell line; [1]): > 5 µM
Compound: CN1CCN([C@H]2C[C@@H](c3nc(-c4ccc5ccc(-c6ccccc6)nc5c4)c4c(N)nccn43)C2)CC1 [PQIP, cis-3-[3-(4-Methyl-piperazin-1-yl)-cyclobutyl]1-(2-phenyl-quinolin-7-yl)-imidazo[1,5-a]pyrazin-8-ylamine]
IC50 (LS123 CRC cell line; LS-123, 72 hours, 0.05-5 μM, read-out: IC50, growth inhibition by PQIP (SRB)): > 5 µM
IC50 (LS174T CRC cell line; [1]): > 5 µM
IC50 (T84 CRC cell line; [1]): > 5 µM

IC50 (CaCo2 CRC cell line; Caco-2, 72 hours, read-out: IC50, proliferation, OSI-906 (SRB)): ≤ 1.5 µM
IC50 (CaCo2 CRC cell line; Caco-2, read-out: S/I/R to OSI-906): ≤ 1.5 µM
IC50 (Colo205 CRC cell line; CoLo205, read-out: S/I/R to OSI-906): ≤ 1.5 µM
IC50 (Colo205 CRC cell line; Colo205, 72 hours, read-out: IC50, proliferation, OSI-906 (SRB)): ≤ 1.5 µM
IC50 (HCT8 CRC cell line; HCT-8, 72 hours, read-out: IC50, proliferation, OSI-906 (SRB)): > 5 µM
IC50 (HCT8 CRC cell line; HCT-8, read-out: S/I/R to OSI-906): > 5 µM
IC50 (LoVo CRC cell line; [2]): > 5 µM
IC50 (LoVo CRC cell line; read-out: S/I/R to OSI-906): > 5 µM
IC50 (SW1116 CRC cell line; SW 1116, 72 hours, read-out: IC50, proliferation, OSI-906 (SRB)): > 5 µM
IC50 (SW1116 CRC cell line; SW 1116, read-out: S/I/R to OSI-906): > 5 µM
IC50 (SW1463 CRC cell line; [2]): > 5 µM
IC50 (SW1463 CRC cell line; read-out: S/I/R to OSI-906): > 5 µM
IC50 (SW403 CRC cell line; SW-403, 72 hours, read-out: IC50, proliferation, OSI-906 (SRB)): > 5 µM
IC50 (SW403 CRC cell line; SW-403, read-out: S/I/R to OSI-906): > 5 µM
IC50 (SW48 CRC cell line; [2]): > 5 µM
IC50 (SW48 CRC cell line; read-out: S/I/R to OSI-906): > 5 µM
IC50 (SW837 CRC cell line; [2]): > 5 µM
IC50 (SW837 CRC cell line; read-out: S/I/R to OSI-906): > 5 µM
Compound: C[C@]1(O)C[C@@H](c2nc(-c3ccc4ccc(-c5ccccc5)nc4c3)c3c(N)nccn32)C1 [OSI-906, cis-3-[8-amino-1-(2-phenyl-quinolin-7-yl)-imidazo[1,5-a]pyrazin-3-yl]-1-methyl-cyclobutanol]
IC50 (LS123 CRC cell line; LS-123, 72 hours, read-out: IC50, proliferation, OSI-906 (SRB)): > 5 µM
IC50 (LS123 CRC cell line; LS-123, read-out: S/I/R to OSI-906): > 5 µM
IC50 (LS174T CRC cell line; [2]): > 5 µM
IC50 (LS174T CRC cell line; read-out: S/I/R to OSI-906): > 5 µM
IC50 (T84 CRC cell line; [2]): > 5 µM
IC50 (T84 CRC cell line; T-84, read-out: S/I/R to OSI-906): > 5 µM
